Experimental findings from PubChem BioAssay (NCI) are described below.

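Five concentrations, 48 hours, 96-well plates. TGI denotes the concentration required for complete inhibition of growth.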 A value given as a limit tells only on which side of the number the result lay.

One experiment relates to 786-0 renal. Kind of experiment: NCI tumour cell line growth inhibition, 48 h.
`O=C(O/N=C1/CCC/C1=C\c1ccccc1)c1ccc([N+](=O)[O-])cc1` yielded a TGI greater than 100 µM.
In turn, `CC1CCC[P+](Cc2ccccc2)(c2ccccc2)CC1` (configuration not stated) displayed a TGI greater than 100 µM.

A further experiment relates to A498 renal. In words: NCI tumour cell line growth inhibition, 48 h.
On to `O=C(O/N=C1/CCC/C1=C\c1ccccc1)c1ccc([N+](=O)[O-])cc1`, for which the TGI was greater than 100 µM.
`C=C1CC(OC)(C(O)C(=O)N[C@H]2OCO[C@H]3C2O[C@H](C[C@@H](COC)OC)C(C)(C)C3OC)O[C@H](C)[C@@H]1C` (some centres not stated) displayed a TGI of less than 0.00482 µM.
The molecule `CC1CCC[P+](Cc2ccccc2)(c2ccccc2)CC1` (configuration not stated) displayed a TGI greater than 100 µM.

The next experiment relates to A549 NSCLC. Kind of experiment: NCI tumour cell line growth inhibition, 48 h.
For `COc1ccc(CNc2nc3ccc(C(F)(F)F)cc3nc2-c2ccccc2)cc1OC`, the TGI was greater than 100 µM.
`O=C(O/N=C1/CCC/C1=C\c1ccccc1)c1ccc([N+](=O)[O-])cc1` displayed a TGI greater than 100 µM.
For `CC1CCC[P+](Cc2ccccc2)(c2ccccc2)CC1` (configuration not stated), the TGI was greater than 100 µM.

A further experiment has as its system ACHN renal. Kind of experiment: NCI tumour cell line growth inhibition, 48 h.
In the case of `COc1ccc(CNc2nc3ccc(C(F)(F)F)cc3nc2-c2ccccc2)cc1OC`, the TGI is greater than 100 µM.
Same read-out and setting: the figure for `O=C(O/N=C1/CCC/C1=C\c1ccccc1)c1ccc([N+](=O)[O-])cc1` is greater than 100 µM; for `CC1CCC[P+](Cc2ccccc2)(c2ccccc2)CC1` (configuration not stated) it is greater than 100 µM.

The next experiment relates to CAKI-1 renal. Kind of experiment: NCI tumour cell line growth inhibition, 48 h.
Molecule `O=C(O/N=C1/CCC/C1=C\c1ccccc1)c1ccc([N+](=O)[O-])cc1` had a TGI greater than 100 µM.

The test system of the next experiment is CCRF-CEM leukemia. Kind of experiment: NCI tumour cell line growth inhibition, 48 h.
Take `COc1ccc(CNc2nc3ccc(C(F)(F)F)cc3nc2-c2ccccc2)cc1OC`: the TGI was greater than 100 µM.
The same measure, in the same setting: the figure for `O=C(O/N=C1/CCC/C1=C\c1ccccc1)c1ccc([N+](=O)[O-])cc1` is greater than 100 µM; for `C=C1CC(OC)(C(O)C(=O)N[C@H]2OCO[C@H]3C2O[C@H](C[C@@H](COC)OC)C(C)(C)C3OC)O[C@H](C)[C@@H]1C` (some centres not stated) it is less than 0.00482 µM.
Molecule `CC1CCC[P+](Cc2ccccc2)(c2ccccc2)CC1` (configuration not stated) yielded a TGI greater than 100 µM.

A further experiment concerns COLO 205 colon. Kind of experiment: NCI tumour cell line growth inhibition, 48 h.
As to `COc1ccc(CNc2nc3ccc(C(F)(F)F)cc3nc2-c2ccccc2)cc1OC`, the TGI is greater than 100 µM.
Molecule `O=C(O/N=C1/CCC/C1=C\c1ccccc1)c1ccc([N+](=O)[O-])cc1` had a TGI greater than 100 µM.
The same measure, in the same setting: the figure for `C=C1CC(OC)(C(O)C(=O)N[C@H]2OCO[C@H]3C2O[C@H](C[C@@H](COC)OC)C(C)(C)C3OC)O[C@H](C)[C@@H]1C` (some centres not stated) is less than 0.00482 µM; for `CC1CCC[P+](Cc2ccccc2)(c2ccccc2)CC1` (configuration not stated) it is greater than 100 µM.

Another experiment relates to DLD-1 colon. Kind of experiment: NCI tumour cell line growth inhibition, 48 h.
For `O=C(O/N=C1/CCC/C1=C\c1ccccc1)c1ccc([N+](=O)[O-])cc1`, the TGI was greater than 100 µM.
Molecule `C=C1CC(OC)(C(O)C(=O)N[C@H]2OCO[C@H]3C2O[C@H](C[C@@H](COC)OC)C(C)(C)C3OC)O[C@H](C)[C@@H]1C` (some centres not stated) displayed a TGI of less than 0.00482 µM.
For `CC1CCC[P+](Cc2ccccc2)(c2ccccc2)CC1` (configuration not stated), the TGI is greater than 100 µM.

Another experiment relates to DMS 114 small cell lung. In words: NCI tumour cell line growth inhibition, 48 h.
Turning to `O=C(O/N=C1/CCC/C1=C\c1ccccc1)c1ccc([N+](=O)[O-])cc1`, the TGI was greater than 100 µM.
On to `C=C1CC(OC)(C(O)C(=O)N[C@H]2OCO[C@H]3C2O[C@H](C[C@@H](COC)OC)C(C)(C)C3OC)O[C@H](C)[C@@H]1C` (some centres not stated), for which the TGI was less than 0.00482 µM.
Molecule `CC1CCC[P+](Cc2ccccc2)(c2ccccc2)CC1` (configuration not stated) registered a TGI of 96.1 µM.

A further experiment deals with DMS 273 small cell lung. In words: NCI tumour cell line growth inhibition, 48 h.
Molecule `COc1ccc(CNc2nc3ccc(C(F)(F)F)cc3nc2-c2ccccc2)cc1OC` came in with a TGI greater than 100 µM.
Molecule `O=C(O/N=C1/CCC/C1=C\c1ccccc1)c1ccc([N+](=O)[O-])cc1` gave a TGI greater than 100 µM.
Still for that read-out and setting: the figure for `CC1CCC[P+](Cc2ccccc2)(c2ccccc2)CC1` (configuration not stated) is greater than 100 µM.

The test system of a further experiment is EKVX NSCLC. In words: NCI tumour cell line growth inhibition, 48 h.
For `COc1ccc(CNc2nc3ccc(C(F)(F)F)cc3nc2-c2ccccc2)cc1OC`, the TGI was greater than 100 µM.
Take `O=C(O/N=C1/CCC/C1=C\c1ccccc1)c1ccc([N+](=O)[O-])cc1`: the TGI was greater than 100 µM.
In turn, `C=C1CC(OC)(C(O)C(=O)N[C@H]2OCO[C@H]3C2O[C@H](C[C@@H](COC)OC)C(C)(C)C3OC)O[C@H](C)[C@@H]1C` (some centres not stated) registered a TGI of less than 0.00482 µM.
Molecule `CC1CCC[P+](Cc2ccccc2)(c2ccccc2)CC1` (configuration not stated) gave a TGI greater than 100 µM.

The test system of a further experiment is HCC-2998 colon. In words: NCI tumour cell line growth inhibition, 48 h.
Molecule `COc1ccc(CNc2nc3ccc(C(F)(F)F)cc3nc2-c2ccccc2)cc1OC` had a TGI greater than 100 µM.
`O=C(O/N=C1/CCC/C1=C\c1ccccc1)c1ccc([N+](=O)[O-])cc1` registered a TGI of 25.7 µM.
Molecule `C=C1CC(OC)(C(O)C(=O)N[C@H]2OCO[C@H]3C2O[C@H](C[C@@H](COC)OC)C(C)(C)C3OC)O[C@H](C)[C@@H]1C` (some centres not stated) showed a TGI of less than 0.00482 µM.
As for `CC1CCC[P+](Cc2ccccc2)(c2ccccc2)CC1` (configuration not stated), the TGI was greater than 100 µM.

The subject of a further experiment is HCT-116 colon. In words: NCI tumour cell line growth inhibition, 48 h.
The molecule `COc1ccc(CNc2nc3ccc(C(F)(F)F)cc3nc2-c2ccccc2)cc1OC` yielded a TGI greater than 100 µM.
With `O=C(O/N=C1/CCC/C1=C\c1ccccc1)c1ccc([N+](=O)[O-])cc1`, the TGI was greater than 100 µM.
For `C=C1CC(OC)(C(O)C(=O)N[C@H]2OCO[C@H]3C2O[C@H](C[C@@H](COC)OC)C(C)(C)C3OC)O[C@H](C)[C@@H]1C` (some centres not stated), the TGI was less than 0.00482 µM.

The next experiment has as its system HCT-15 colon. In words: NCI tumour cell line growth inhibition, 48 h.
`COc1ccc(CNc2nc3ccc(C(F)(F)F)cc3nc2-c2ccccc2)cc1OC` displayed a TGI greater than 100 µM.
On the same count and under the same terms, the figure for `O=C(O/N=C1/CCC/C1=C\c1ccccc1)c1ccc([N+](=O)[O-])cc1` is greater than 100 µM.
Same read-out and setting: the figure for `C=C1CC(OC)(C(O)C(=O)N[C@H]2OCO[C@H]3C2O[C@H](C[C@@H](COC)OC)C(C)(C)C3OC)O[C@H](C)[C@@H]1C` (some centres not stated) is less than 0.00482 µM; for `CC1CCC[P+](Cc2ccccc2)(c2ccccc2)CC1` (configuration not stated) it is greater than 100 µM.

Another experiment relates to HL-60(TB) leukemia. Kind of experiment: NCI tumour cell line growth inhibition, 48 h.
`COc1ccc(CNc2nc3ccc(C(F)(F)F)cc3nc2-c2ccccc2)cc1OC` had a TGI greater than 100 µM.
For the molecule `O=C(O/N=C1/CCC/C1=C\c1ccccc1)c1ccc([N+](=O)[O-])cc1`, the TGI is greater than 100 µM.
Still for that read-out and setting: the figure for `CC1CCC[P+](Cc2ccccc2)(c2ccccc2)CC1` (configuration not stated) is 37.8 µM.
